Results on two molecules are retold here after PMC6197744, “Triazolo[4,5-d]pyrimidines as Validated General Control Nonderepressible 2 (GCN2) Protein Kinase Inhibitors Reduce Growth of Leukemia Cells” (Computational and Structural Biotechnology Journal, 2018).

Holding throughout (assay): NCI-60 one-dose screen
What all share (format): cell-based

The subject of assay [1] is U251. Conditions: Homo sapiens, U-251; CNS U251, 10 μM, 48 h; read-out: Percent growth inhibition. How it is done: (§1) Compounds 1 and 2 were submitted to the National Cancer Institute NCI-60 Tumor Cell Screening Program (NCI number 800,700 and 800,701, respectively) for evaluation against the 60 cell line NCI panel at a single dose of 10 μM. […] Leukemia and breast cancer cell lines comprised the only cancer groups that were uniformly sensitive to both 1 and 2, with the greatest sensitivity seen in the leukemia SR cell line.
(§2) Compounds 1 and 2 were submitted to the NCI for growth inhibition screening against its panel of 60 cancer cell lines. The NCI screening protocol has extensively been described [[53], [54], [55], [56]]. Briefly, cancerous cell lines were grown in RPMI 1640 medium containing 5% fetal bovine serum and 2 mM L-glutamine. Depending on the doubling time of each cell line, 5000–40,000 cells were seeded in 96-well plates for 24 h. Cells were then treated with compounds 1 or 2 at a concentration of 10 μM and incubated for 48 h at 37 °C in a humidified atmosphere containing 5% CO2. The cells were then fixed and stained with sulforhodamine B (SRB) to determine their viability. The data were analyzed using a program called COMPARE to determine the percent growth inhibition of each compound.

Assay [2] has as its system CAKI-1. Conditions: Homo sapiens; Renal CAKI-1, 10 μM, 48 h; read-out: Percent growth inhibition. How it is done: as §1, §2
For assay [3], the system named is RXF393. Conditions: Homo sapiens, RXF 393; Renal RXF393, 10 μM, 48 h; read-out: Percent growth inhibition. How it is done: as §1, §2
Assay [4] relates to SN12C. Conditions: Homo sapiens, Renal SN12C, 48 h, read-out: Percent growth inhibition. How it is done: as §1, §2
For assay [5], the system named is UO-31. Conditions: Homo sapiens; Renal UO-31, 10 μM, 48 h; read-out: Percent growth inhibition. How it is done:
as §1, §2

Assay [6] deals with A549. The note with it: Homo sapiens; Non-Small Cell Lung A549, 10 μM, 48 h; read-out: Percent growth inhibition. How it is done: as §1, §2
The subject of assay [7] is T-47D. Conditions: Homo sapiens, T47D, Breast T-47D, 48 h, read-out: Percent growth inhibition. How it is done:
as §1, §2

Assay [8] has as its system HCT-15. The note with it: Homo sapiens; Colon HCT-15, 10 μM, 48 h; read-out: Percent growth inhibition. How it is done: as §1, §2
For assay [9], the system named is IGROV1. The note with it: Homo sapiens, IGROV-1; Ovarian IGROV1, 10 μM, 48 h; read-out: Percent growth inhibition. How it is done:
as §1, §2

Assay [10] concerns UACC-62. The note with it: Homo sapiens; Melanoma UACC-62, 10 μM, 48 h; read-out: Percent growth inhibition. How it is done: as §1, §2
In assay [11] the test system is RPMI-8226. The note with it: Homo sapiens; Leukemia RPMI-8226, 10 μM, 48 h; read-out: Percent growth inhibition. How it is done: as §1, §2
Assay [12] has as its system NCI-H322M. Conditions: Homo sapiens, Non-Small Cell Lung NCI-H322M, 48 h, read-out: Percent growth inhibition. How it is done:
as §1, §2

Assay [13] has as its system MDA-MB-468. Conditions: Homo sapiens; Breast MDA-MB-468, 10 μM, 48 h; read-out: Percent growth inhibition. How it is done:
as §1, §2

Assay [14] has as its system NCI-H226. Conditions: Homo sapiens, NCI-H226, 48 h, Non-Small Cell Lung NCI-H226, 10 μM, read-out: Percent growth inhibition. How it is done:
as §1, §2

Assay [15] has as its system NCI/ADR-RES. Conditions: Homo sapiens, Ovarian NCI/ADR-RES, 48 h, read-out: Percent growth inhibition. How it is done: as §1, §2
The subject of assay [16] is SK-MEL-28. The note with it: Homo sapiens; Melanoma SK-MEL-28, 10 μM, 48 h; read-out: Percent growth inhibition. How it is done: as §1, §2
Assay [17] has as its system HOP-92. The note with it: Homo sapiens; Non-Small Cell Lung HOP-92, 10 μM, 48 h; read-out: Percent growth inhibition. How it is done:
as §1, §2

In assay [18] the test system is OVCAR-4. Conditions: Homo sapiens; Ovarian OVCAR-4, 10 μM, 48 h; read-out: Percent growth inhibition. How it is done:
as §1, §2

In assay [19] the test system is LOXIMVI. The note with it: Homo sapiens, LOX IMVI, Melanoma LOXIMVI, 48 h, read-out: Percent growth inhibition. How it is done:
as §1, §2

The test system of assay [20] is SF-295. Conditions: Homo sapiens; CNS SF-295, 10 μM, 48 h; read-out: Percent growth inhibition. How it is done:
as §1, §2

The subject of assay [21] is NCI-H460. The note with it: Homo sapiens; Non-Small Cell Lung NCI-H460, 10 μM, 48 h; read-out: Percent growth inhibition. How it is done: as §1, §2
Assay [22] relates to SK-MEL-5. Conditions: Homo sapiens; Melanoma SK-MEL-5, 10 μM, 48 h; read-out: Percent growth inhibition. How it is done: as §1, §2

For orientation: inhibition means the change of the read-out against control, counted positive when it falls. On to `CCn1cc(Nc2ncc3nnn(-c4ccc(C(=O)OC)cc4)c3n2)cn1` [Compound 1, Methyl 4-(5-((1-ethyl-1H-pyrazol-4-yl)amino)-3H-[1,2,3]triazolo[4,5-d]pyrimidin-3-yl)benzoate], for which the inhibition at 10 µM is 27.6% in assay [1]; 1.59% in [2]; -4.13% in [3]; 1.94% in assay [4]; 10.4% in assay [5]; 18.6% in assay [6]. The inhibition at 10 µM is 25.8% in assay [7]; 11.2% in assay [8]; -16.8% in assay [9]; 5.19% in assay [10]; 10.8% in assay [11]; -3.7% in assay [12]. For the same molecule, the inhibition at 10 µM in [13] was 6.13%; in assay [14] it was 34.6%; in assay [15], -8.6%; in [16], -4.08%; in [17] it was -8.76%; in [18], -12%. The inhibition at 10 µM was 34.9% in assay [19], -2.41% in assay [20], 0.26% in [21] and 40.4% in assay [22].
Turning to `CCOc1ccc(-n2nnc3cnc(Nc4cnn(CC)c4)nc32)cc1` [Compound 2, 3-(4-Ethoxyphenyl)-N-(1-ethyl-1H-pyrazol-4-yl)-3H-[1,2,3]triazolo[4,5-d]pyrimidin-5-amine], the inhibition at 10 µM in assay [1] is 24.3%; in assay [2], 0.05%; in assay [3], 43.8%; in assay [4] it was 12.5%; in [5], 3.24%; in assay [6], 25.2%. The inhibition at 10 µM in assay [7] was 20.7%; in assay [8], 0.66%; in assay [9], 5.39%; in assay [10], 1.67%; in assay [11], 17%; in assay [12] it was -5.07%. Also, the inhibition at 10 µM in [13] is 9.91%; in [14] it was 46.3%; in assay [15] it was 1.5%; in assay [16] it was -2.62%; in assay [17], -5.76%; in assay [18], -14.7%. The inhibition at 10 µM turned out to be 45.7% in assay [19], 3.75% in assay [20], 5.14% in [21] and 26.4% in assay [22].
